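The compound was tested at five concentrations on cells cultured in 96-well plates, with a 48-hour exposure period. Abbreviation: GI50, concentration required for 50% inhibition of growth. At the TGI there is no net growth.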
Experiments:
Assay in all cases: NCI-60 cell line screen, 48 h
[1] = system: OVCAR-8 ovarian
[2] = system: NCI/ADR-RES ovarian
[3] = system: TK-10 renal
[4] = system: SNB-19 CNS
[5] = system: HOP-92 NSCLC
[6] = system: IGROV1 ovarian
[7] = system: PC-3 prostate
[8] = system: OVCAR-3 ovarian
[9] = system: UACC-257 melanoma
[10] = system: HS 578T breast
[11] = system: NCI-H522 lung
[12] = system: RXF 393 renal
[13] = system: KM12 colon
[14] = system: UACC-62 melanoma
[15] = system: A549 NSCLC
[16] = system: BT-549 breast
[17] = system: NCI-H460 lung
[18] = system: K-562 leukemia
[19] = system: HL-60(TB) leukemia
[20] = system: MDA-MB-435
[21] = system: HCT-15 colon
[22] = system: DU-145 prostate
[23] = system: MALME-3M melanoma
[24] = system: HT29 colon
[25] = system: SK-MEL-28 melanoma
[26] = system: M14 melanoma
[27] = system: SK-MEL-2 melanoma
[28] = system: HCC-2998 colon
[29] = system: CCRF-CEM leukemia
[30] = system: LOX IMVI melanoma
[31] = system: SW-620 colon
[32] = system: ACHN renal
[33] = system: MCF7 breast
[34] = system: OVCAR-4 ovarian
[35] = system: NCI-H23 lung
[36] = system: RPMI-8226 leukemia
[37] = system: HCT-116 colon
[38] = system: NCI-H226 lung
[39] = system: SF-539 CNS
[40] = system: MDA-MB-231 breast
[41] = system: 786-0 renal
[42] = system: SF-295 CNS
[43] = system: SK-MEL-5 melanoma
[44] = system: COLO 205 colon
[45] = system: MOLT-4 leukemia
[46] = system: SR leukemia
[47] = system: SNB-75 CNS
[48] = system: CAKI-1 renal
[49] = system: UO-31 renal
[50] = system: OVCAR-5 ovarian
[51] = system: A498 renal
[52] = system: EKVX NSCLC
[53] = system: U251 CNS
[54] = system: HOP-62 NSCLC
[55] = system: SN12C renal
[56] = system: T-47D breast
[57] = system: SF-268 CNS
[58] = system: SK-OV-3 ovarian
[59] = system: MDA-MB-468 breast

Oc1ccc(Cl)c(Nc2ncnc3c2cnn3CC(Cl)c2ccc(Br)cc2)c1 (stereo unspecified)
GI50 [1]: 7.97 µM
TGI [1]: 25.9 µM
GI50 [2]: 7.47 µM
TGI [2]: 27.4 µM
GI50 [3]: 13.9 µM
TGI [3]: 29 µM
GI50 [4]: 12.4 µM
TGI [4]: 36 µM
GI50 [5]: 2.34 µM
TGI [5]: 12.4 µM
GI50 [6]: 2.39 µM
TGI [6]: 8.31 µM
GI50 [7]: 4.53 µM
TGI [7]: 35.4 µM
GI50 [8]: 7.99 µM
TGI [8]: 38.8 µM
GI50 [9]: 13.8 µM
TGI [9]: 28.3 µM
GI50 [10]: 1.13 µM
TGI [10]: 7.95 µM
GI50 [11]: 7.4 µM
TGI [11]: 27.8 µM
GI50 [12]: 0.766 µM
TGI [12]: 7.17 µM
GI50 [13]: 19.3 µM
TGI [13]: 42.9 µM
GI50 [14]: 12.6 µM
TGI [14]: 25.2 µM
GI50 [15]: 12.1 µM
TGI [15]: 37.3 µM
GI50 [16]: 12.7 µM
TGI [16]: 25.4 µM
GI50 [17]: 16.7 µM
TGI [17]: 36.5 µM
GI50 [18]: 0.0826 µM
TGI [18]: 12.9 µM
GI50 [19]: 23.2 µM
TGI [19]: 62.2 µM
GI50 [20]: 11.9 µM
TGI [20]: 26.8 µM
GI50 [21]: 4.57 µM
TGI [21]: 19.4 µM
GI50 [22]: 10.6 µM
TGI [22]: 32 µM
GI50 [23]: 12.3 µM
TGI [23]: 25.1 µM
GI50 [24]: 13.9 µM
TGI [24]: 31.9 µM
GI50 [25]: 14.9 µM
TGI [25]: 28.9 µM
GI50 [26]: 11.2 µM
TGI [26]: 24.3 µM
GI50 [27]: 17.5 µM
TGI [27]: 34.3 µM
GI50 [28]: 14.9 µM
TGI [28]: 29.1 µM
GI50 [29]: 13.6 µM
TGI [29]: 60.1 µM
GI50 [30]: 2.09 µM
TGI [30]: 11.8 µM
GI50 [31]: 21.9 µM
TGI [31]: 47.4 µM
GI50 [32]: 2.12 µM
TGI [32]: 15.3 µM
GI50 [33]: 11.1 µM
TGI [33]: 26.2 µM
GI50 [34]: 13.1 µM
TGI [34]: 54.4 µM
GI50 [35]: 12.6 µM
TGI [35]: 26.3 µM
GI50 [36]: 17 µM
TGI [36]: 93.8 µM
GI50 [37]: 7.89 µM
TGI [37]: 21.4 µM
GI50 [38]: 11.8 µM
TGI [38]: 28.7 µM
GI50 [39]: 4.64 µM
TGI [39]: 18.1 µM
GI50 [40]: 7.29 µM
TGI [40]: 21 µM
GI50 [41]: 5.7 µM
TGI [41]: 23.3 µM
GI50 [42]: 6.2 µM
TGI [42]: 27.3 µM
GI50 [43]: 10.5 µM
TGI [43]: 22.3 µM
GI50 [44]: 17.7 µM
TGI [44]: 38.7 µM
GI50 [45]: 6.75 µM
TGI [45]: 37.7 µM
GI50 [46]: 6.67 µM
TGI [46]: 81.6 µM
GI50 [47]: 1.03 µM
TGI [47]: 5.58 µM
GI50 [48]: 3.72 µM
TGI [48]: 28.6 µM
GI50 [49]: 2.34 µM
TGI [49]: 17 µM
GI50 [50]: 10.3 µM
TGI [50]: 24.4 µM
GI50 [51]: 16.2 µM
TGI [51]: 30.7 µM
GI50 [52]: 11.9 µM
TGI [52]: 34.6 µM
GI50 [53]: 11.3 µM
TGI [53]: 25.5 µM
GI50 [54]: 11.7 µM
TGI [54]: 30.5 µM
GI50 [55]: 3.79 µM
TGI [55]: 18.1 µM
GI50 [56]: 4.48 µM
TGI [56]: 55.4 µM
GI50 [57]: 6.07 µM
TGI [57]: 33.5 µM
GI50 [58]: 7.63 µM
TGI [58]: 31.3 µM
GI50 [59]: 3.35 µM
TGI [59]: 16.3 µM

Fc1cccc(CNc2nc(SCCN3CCOCC3)nc3c2cnn3CC(Cl)c2ccc(Br)cc2)c1 (stereo unspecified)
GI50 [1]: 10.7 µM
TGI [1]: > 100 µM
GI50 [2]: 4.52 µM
TGI [2]: > 100 µM
GI50 [3]: 43.8 µM
TGI [3]: > 100 µM
GI50 [4]: 16.2 µM
TGI [4]: > 100 µM
GI50 [5]: 13.4 µM
TGI [5]: > 100 µM
GI50 [6]: 34.4 µM
TGI [6]: > 100 µM
GI50 [7]: 6.58 µM
TGI [7]: > 100 µM
GI50 [8]: 53.1 µM
TGI [8]: > 100 µM
GI50 [9]: 13.9 µM
TGI [9]: > 100 µM
GI50 [10]: 8.83 µM
TGI [10]: > 100 µM
GI50 [11]: 8.22 µM
TGI [11]: > 100 µM
GI50 [12]: 2.44 µM
TGI [12]: 21.3 µM
GI50 [13]: 4.81 µM
TGI [13]: > 100 µM
GI50 [14]: 8.76 µM
TGI [14]: 23.8 µM
GI50 [15]: 4.88 µM
TGI [15]: > 100 µM
GI50 [16]: 21.2 µM
TGI [16]: 57.4 µM
GI50 [17]: 5.04 µM
TGI [17]: > 100 µM
GI50 [18]: 2.69 µM
TGI [18]: > 100 µM
GI50 [19]: 3.85 µM
TGI [19]: 50.4 µM
GI50 [20]: 11.5 µM
TGI [20]: > 100 µM
GI50 [21]: 1.94 µM
TGI [21]: 4.5 µM
GI50 [22]: 39 µM
TGI [22]: > 100 µM
GI50 [23]: 3.02 µM
TGI [23]: 24.9 µM
GI50 [24]: 1.86 µM
TGI [24]: 3.82 µM
GI50 [25]: 8.51 µM
TGI [25]: > 100 µM
GI50 [26]: 7.96 µM
TGI [26]: > 100 µM
GI50 [27]: 11.9 µM
TGI [27]: 37.5 µM
GI50 [28]: 3.46 µM
TGI [28]: > 100 µM
GI50 [29]: 5.41 µM
TGI [29]: > 100 µM
GI50 [30]: 2.9 µM
TGI [30]: 11.6 µM
GI50 [31]: 2.89 µM
TGI [31]: 10.4 µM
GI50 [32]: 5.83 µM
TGI [32]: > 100 µM
GI50 [33]: 4.61 µM
TGI [33]: > 100 µM
GI50 [34]: 8.81 µM
TGI [34]: > 100 µM
GI50 [35]: 17 µM
TGI [35]: > 100 µM
GI50 [36]: 4.33 µM
TGI [36]: > 100 µM
GI50 [37]: 4.82 µM
TGI [37]: > 100 µM
GI50 [38]: 13.2 µM
TGI [38]: 98.4 µM
GI50 [39]: 4.58 µM
TGI [39]: > 100 µM
GI50 [40]: 4.25 µM
TGI [40]: 52.6 µM
GI50 [41]: 5.7 µM
TGI [41]: > 100 µM
GI50 [42]: 4.16 µM
TGI [42]: > 100 µM
GI50 [43]: 7.54 µM
TGI [43]: 20.3 µM
GI50 [44]: 4.31 µM
TGI [44]: 20.5 µM
GI50 [45]: 2.58 µM
TGI [45]: 15.7 µM
GI50 [46]: 2.5 µM
TGI [46]: > 100 µM
GI50 [47]: 6.5 µM
TGI [47]: > 100 µM
GI50 [48]: 5.07 µM
TGI [48]: > 100 µM
GI50 [49]: 5.11 µM
TGI [49]: > 100 µM
GI50 [50]: 14.1 µM
TGI [50]: > 100 µM
GI50 [51]: 30.4 µM
TGI [51]: > 100 µM
GI50 [52]: 8.05 µM
TGI [52]: > 100 µM
GI50 [53]: 6.12 µM
TGI [53]: > 100 µM
GI50 [54]: 25.8 µM
TGI [54]: > 100 µM
GI50 [55]: 12 µM
TGI [55]: > 100 µM
GI50 [56]: 3.28 µM
TGI [56]: > 100 µM
GI50 [57]: 10 µM
TGI [57]: > 100 µM
GI50 [58]: > 100 µM
TGI [58]: > 100 µM
GI50 [59]: 2.62 µM
TGI [59]: 8.48 µM

Reference: PubChem BioAssay (NCI)
